Assay results reported in ChEMBL document CHEMBL5678803, “Selective blockade of TRPA1 channel attenuates pathological pain without altering noxious cold sensation or body temperature regulation” (Pain, 2011).
Active and inactive are the calls of the source. No cut-off for these calls is given here.

How the values were obtained:
[1] = Aqueous solubility of compound; assay type: physicochemical; conditions: buffer
[2] = Stability of compound in aqueous tetrahydrofuran buffer at pH 7.5 assessed as compound remaining incubated for 16 hrs in presence of glutathione by nuclear magnetic resonance spectroscopy based LC-MS analysis; assay type: physicochemical; conditions: aqueous tetrahydrofuran buffer with glutathione, read-out: Stability
[3] = Chemical reactivity of compound to La antigen incubated overnight by LC-MS analysis; assay type: physicochemical
[4] = molecular target: Transient receptor potential cation channel subfamily A member 1 (Homo sapiens, UniProt O75762); test: Antagonist activity at recombinant human TRPA1 expressed in HEK293F cells assessed as reduction in AITC-induced increase in intracellular Ca2+ level by FLIPR-based Ca2+ assay; assay type: cell-based; conditions: filed as antagonist
Chain of Transient receptor potential cation channel subfamily A member 1 (Homo sapiens, UniProt O75762) (O75762 whole entry): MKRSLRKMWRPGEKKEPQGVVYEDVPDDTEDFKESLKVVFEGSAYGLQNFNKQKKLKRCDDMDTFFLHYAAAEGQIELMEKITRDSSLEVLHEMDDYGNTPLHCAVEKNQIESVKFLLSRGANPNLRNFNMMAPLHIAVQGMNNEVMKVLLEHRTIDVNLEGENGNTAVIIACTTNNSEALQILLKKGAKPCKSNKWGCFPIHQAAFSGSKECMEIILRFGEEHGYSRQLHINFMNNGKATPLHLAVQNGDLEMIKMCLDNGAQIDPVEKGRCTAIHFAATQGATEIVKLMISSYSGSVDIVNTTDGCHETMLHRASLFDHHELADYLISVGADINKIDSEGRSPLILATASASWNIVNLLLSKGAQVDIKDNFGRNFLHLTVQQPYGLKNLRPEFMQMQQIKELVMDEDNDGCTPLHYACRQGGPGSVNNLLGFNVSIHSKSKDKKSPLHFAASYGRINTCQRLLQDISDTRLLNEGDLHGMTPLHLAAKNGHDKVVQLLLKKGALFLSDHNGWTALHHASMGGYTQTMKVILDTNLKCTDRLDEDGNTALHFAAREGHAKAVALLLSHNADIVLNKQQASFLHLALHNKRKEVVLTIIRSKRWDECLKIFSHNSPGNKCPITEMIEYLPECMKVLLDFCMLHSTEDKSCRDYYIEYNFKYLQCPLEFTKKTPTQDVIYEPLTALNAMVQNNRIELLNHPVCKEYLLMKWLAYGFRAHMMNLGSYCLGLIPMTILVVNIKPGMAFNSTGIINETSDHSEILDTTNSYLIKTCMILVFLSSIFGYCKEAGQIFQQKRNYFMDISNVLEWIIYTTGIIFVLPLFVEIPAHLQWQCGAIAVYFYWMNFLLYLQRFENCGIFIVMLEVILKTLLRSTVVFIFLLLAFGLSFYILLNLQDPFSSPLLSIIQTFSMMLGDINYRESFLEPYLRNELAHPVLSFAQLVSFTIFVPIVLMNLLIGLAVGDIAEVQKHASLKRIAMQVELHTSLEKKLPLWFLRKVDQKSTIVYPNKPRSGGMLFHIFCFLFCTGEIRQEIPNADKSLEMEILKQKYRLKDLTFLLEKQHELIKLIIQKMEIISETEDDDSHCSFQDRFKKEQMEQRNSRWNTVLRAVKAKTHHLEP

[5] = molecular target: Transient receptor potential cation channel subfamily A member 1 (Mus musculus, UniProt Q8BLA8); test: Antagonist activity at mouse TRPA1 expressed in HEK293F cells assessed as reduction in AITC-induced increase in intracellular Ca2+ level by FLIPR-based Ca2+ assay; assay type: cell-based
[6] = molecular target: Transient receptor potential cation channel subfamily A member 1 (Rattus norvegicus, UniProt Q6RI86); test: Antagonist activity at GFP-tagged rat TRPA1 transfected in HEK293F cells assessed as reduction in AITC-induced inward current at -60 mV holding potential by electrophysiological recordings; assay type: cell-based
Chain of Transient receptor potential cation channel subfamily A member 1 (Rattus norvegicus, UniProt Q6RI86) (Q6RI86 whole entry): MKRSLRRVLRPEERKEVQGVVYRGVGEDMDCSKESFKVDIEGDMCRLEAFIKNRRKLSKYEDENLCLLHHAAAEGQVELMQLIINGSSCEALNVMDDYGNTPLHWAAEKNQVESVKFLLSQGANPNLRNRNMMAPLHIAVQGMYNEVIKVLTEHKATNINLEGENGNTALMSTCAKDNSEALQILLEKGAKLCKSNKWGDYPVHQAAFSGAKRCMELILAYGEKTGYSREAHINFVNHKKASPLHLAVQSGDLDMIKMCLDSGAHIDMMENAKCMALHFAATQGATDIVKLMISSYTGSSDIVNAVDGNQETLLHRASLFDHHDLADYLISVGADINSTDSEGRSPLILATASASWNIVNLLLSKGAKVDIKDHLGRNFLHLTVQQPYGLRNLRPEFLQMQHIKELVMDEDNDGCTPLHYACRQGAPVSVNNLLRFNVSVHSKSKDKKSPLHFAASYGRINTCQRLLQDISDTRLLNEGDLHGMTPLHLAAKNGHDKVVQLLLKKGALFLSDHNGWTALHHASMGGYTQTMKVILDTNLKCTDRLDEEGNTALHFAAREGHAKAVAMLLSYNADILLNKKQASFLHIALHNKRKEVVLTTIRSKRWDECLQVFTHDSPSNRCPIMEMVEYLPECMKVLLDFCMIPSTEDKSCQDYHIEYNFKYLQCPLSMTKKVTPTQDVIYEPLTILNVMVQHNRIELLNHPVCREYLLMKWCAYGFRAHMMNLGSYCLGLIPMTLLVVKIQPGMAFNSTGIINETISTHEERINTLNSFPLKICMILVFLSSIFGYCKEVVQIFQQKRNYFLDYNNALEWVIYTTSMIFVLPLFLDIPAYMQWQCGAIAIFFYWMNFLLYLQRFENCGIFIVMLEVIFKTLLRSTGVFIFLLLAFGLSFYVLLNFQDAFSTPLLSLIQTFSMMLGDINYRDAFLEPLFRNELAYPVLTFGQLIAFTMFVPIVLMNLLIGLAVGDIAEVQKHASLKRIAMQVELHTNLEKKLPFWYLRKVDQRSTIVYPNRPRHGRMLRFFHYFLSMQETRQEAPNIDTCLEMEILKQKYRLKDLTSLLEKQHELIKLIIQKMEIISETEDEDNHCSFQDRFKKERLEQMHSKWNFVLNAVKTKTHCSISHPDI

[7] = molecular target: Transient receptor potential cation channel subfamily V member 1 (Homo sapiens, UniProt Q8NER1); test: Antagonist activity at human TRPV1 expressed in HEK293F cells assessed as inhibition of capsaicin-induced increase in intracellular Ca2+ level by FLIPR-based Ca2+ assay; assay type: cell-based
Chain of Transient receptor potential cation channel subfamily V member 1 (Q8NER1 whole entry): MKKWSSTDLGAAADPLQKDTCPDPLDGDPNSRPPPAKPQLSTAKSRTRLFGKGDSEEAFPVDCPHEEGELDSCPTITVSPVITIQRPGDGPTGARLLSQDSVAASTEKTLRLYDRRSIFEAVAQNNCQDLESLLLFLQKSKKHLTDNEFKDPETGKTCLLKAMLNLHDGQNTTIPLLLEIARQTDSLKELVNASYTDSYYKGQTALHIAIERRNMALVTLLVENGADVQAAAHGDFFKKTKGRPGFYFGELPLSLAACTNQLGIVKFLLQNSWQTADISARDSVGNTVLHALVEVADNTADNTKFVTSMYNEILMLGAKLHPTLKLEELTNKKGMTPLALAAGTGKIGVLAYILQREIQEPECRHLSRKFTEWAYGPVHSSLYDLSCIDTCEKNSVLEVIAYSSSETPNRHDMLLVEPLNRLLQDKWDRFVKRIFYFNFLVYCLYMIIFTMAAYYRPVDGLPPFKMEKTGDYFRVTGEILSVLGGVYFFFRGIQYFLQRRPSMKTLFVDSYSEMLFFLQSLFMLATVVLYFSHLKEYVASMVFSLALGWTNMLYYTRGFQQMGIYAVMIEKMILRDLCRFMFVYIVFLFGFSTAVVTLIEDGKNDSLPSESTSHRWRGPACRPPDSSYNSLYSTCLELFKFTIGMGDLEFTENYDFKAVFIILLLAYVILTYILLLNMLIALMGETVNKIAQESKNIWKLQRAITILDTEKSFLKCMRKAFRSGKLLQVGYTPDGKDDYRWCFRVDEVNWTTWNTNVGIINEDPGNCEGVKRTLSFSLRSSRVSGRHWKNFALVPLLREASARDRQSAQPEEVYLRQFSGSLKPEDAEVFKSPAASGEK

[8] = molecular target: T1, Transient receptor potential cation channel subfamily V member 2 (Rattus norvegicus, UniProt Q9WUD2); test: Antagonist activity at rat TRPV2 expressed in HEK293F cells assessed as inhibition of 2APB-induced increase in intracellular Ca2+ level by FLIPR-based Ca2+ assay; assay type: cell-based
T1 sequence (Q9WUD2 whole entry): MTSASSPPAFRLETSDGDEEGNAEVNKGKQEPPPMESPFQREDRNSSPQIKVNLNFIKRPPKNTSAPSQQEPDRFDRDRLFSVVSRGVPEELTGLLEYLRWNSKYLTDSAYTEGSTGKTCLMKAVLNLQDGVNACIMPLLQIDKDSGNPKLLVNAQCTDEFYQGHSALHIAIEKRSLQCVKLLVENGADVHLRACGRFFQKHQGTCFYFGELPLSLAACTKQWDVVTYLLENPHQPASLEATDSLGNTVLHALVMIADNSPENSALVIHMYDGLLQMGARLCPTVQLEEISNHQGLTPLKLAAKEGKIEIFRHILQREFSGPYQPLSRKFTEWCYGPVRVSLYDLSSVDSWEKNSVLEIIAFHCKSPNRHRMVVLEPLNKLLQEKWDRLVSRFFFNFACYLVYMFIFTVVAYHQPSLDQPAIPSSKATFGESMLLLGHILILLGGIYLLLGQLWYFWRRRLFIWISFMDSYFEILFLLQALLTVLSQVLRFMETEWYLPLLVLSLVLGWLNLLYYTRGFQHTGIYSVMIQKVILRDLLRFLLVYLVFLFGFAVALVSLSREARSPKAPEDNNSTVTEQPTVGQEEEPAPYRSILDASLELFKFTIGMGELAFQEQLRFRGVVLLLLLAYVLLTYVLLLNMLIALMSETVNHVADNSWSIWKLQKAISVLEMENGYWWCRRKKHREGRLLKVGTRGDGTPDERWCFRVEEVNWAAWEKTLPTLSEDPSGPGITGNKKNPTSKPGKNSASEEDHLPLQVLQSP

[9] = molecular target: Transient receptor potential cation channel subfamily V member 4 (Homo sapiens, UniProt Q9HBA0); test: Antagonist activity at human TRPV4 expressed in HEK293F cells assessed as inhibition of mOsmo-induced increase in intracellular Ca2+ level by FLIPR-based Ca2+ assay; assay type: cell-based
Chain of Transient receptor potential cation channel subfamily V member 4 (Q9HBA0 whole entry): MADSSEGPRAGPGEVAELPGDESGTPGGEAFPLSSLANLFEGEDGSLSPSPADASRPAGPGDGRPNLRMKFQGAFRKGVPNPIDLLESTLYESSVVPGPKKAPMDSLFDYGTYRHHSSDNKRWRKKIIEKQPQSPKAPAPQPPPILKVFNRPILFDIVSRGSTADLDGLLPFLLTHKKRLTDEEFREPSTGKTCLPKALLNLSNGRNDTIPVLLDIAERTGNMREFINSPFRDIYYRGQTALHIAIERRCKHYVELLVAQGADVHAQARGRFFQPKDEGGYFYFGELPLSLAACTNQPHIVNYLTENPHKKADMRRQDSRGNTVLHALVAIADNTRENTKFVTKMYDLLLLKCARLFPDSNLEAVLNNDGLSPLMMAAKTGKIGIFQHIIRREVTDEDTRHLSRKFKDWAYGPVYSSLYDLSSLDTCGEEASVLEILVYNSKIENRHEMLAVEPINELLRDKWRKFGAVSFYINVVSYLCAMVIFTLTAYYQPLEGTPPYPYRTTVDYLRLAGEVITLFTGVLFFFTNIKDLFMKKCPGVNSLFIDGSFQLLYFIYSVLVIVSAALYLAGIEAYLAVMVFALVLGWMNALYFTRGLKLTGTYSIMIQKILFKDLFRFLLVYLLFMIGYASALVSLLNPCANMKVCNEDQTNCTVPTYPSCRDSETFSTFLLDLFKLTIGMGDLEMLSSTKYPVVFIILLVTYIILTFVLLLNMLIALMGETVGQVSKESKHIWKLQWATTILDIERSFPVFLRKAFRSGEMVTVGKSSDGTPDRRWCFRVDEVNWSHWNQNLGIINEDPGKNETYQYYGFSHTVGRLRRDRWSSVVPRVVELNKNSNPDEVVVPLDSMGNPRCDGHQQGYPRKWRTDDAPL

[10] = molecular target: Sodium-dependent dopamine transporter (Homo sapiens) (UniProt Q01959); test: Inhibition of dopamine transporter (unknown origin) at 10 micromol/L by radioligand binding assay; conditions: dose 10.0 µmol/L
Chain of Sodium-dependent dopamine transporter (Homo sapiens) (Q01959 whole entry): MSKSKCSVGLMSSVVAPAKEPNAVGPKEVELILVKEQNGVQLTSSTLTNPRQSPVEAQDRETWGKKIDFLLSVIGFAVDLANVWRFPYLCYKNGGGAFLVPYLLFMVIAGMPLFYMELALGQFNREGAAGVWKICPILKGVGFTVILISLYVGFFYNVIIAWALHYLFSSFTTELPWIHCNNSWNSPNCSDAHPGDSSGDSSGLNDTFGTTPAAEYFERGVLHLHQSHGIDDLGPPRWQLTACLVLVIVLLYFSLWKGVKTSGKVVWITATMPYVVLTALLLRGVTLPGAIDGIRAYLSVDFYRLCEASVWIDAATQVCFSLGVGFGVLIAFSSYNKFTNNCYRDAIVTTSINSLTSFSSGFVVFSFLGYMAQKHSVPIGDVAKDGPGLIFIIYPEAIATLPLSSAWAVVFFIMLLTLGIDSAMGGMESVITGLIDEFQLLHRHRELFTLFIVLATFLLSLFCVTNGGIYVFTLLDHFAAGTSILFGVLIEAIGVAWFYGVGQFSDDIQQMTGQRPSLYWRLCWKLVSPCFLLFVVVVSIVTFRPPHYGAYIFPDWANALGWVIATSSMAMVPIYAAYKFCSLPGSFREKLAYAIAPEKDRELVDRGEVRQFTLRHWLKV

[11] = molecular target: Melatonin receptor type 1A (Homo sapiens) (UniProt P48039); test: Inhibition of MT1 receptor (unknown origin) at 10 micromol/L by radioligand binding assay; conditions: dose 10.0 µmol/L
Chain of Melatonin receptor type 1A (Homo sapiens) (P48039 whole entry): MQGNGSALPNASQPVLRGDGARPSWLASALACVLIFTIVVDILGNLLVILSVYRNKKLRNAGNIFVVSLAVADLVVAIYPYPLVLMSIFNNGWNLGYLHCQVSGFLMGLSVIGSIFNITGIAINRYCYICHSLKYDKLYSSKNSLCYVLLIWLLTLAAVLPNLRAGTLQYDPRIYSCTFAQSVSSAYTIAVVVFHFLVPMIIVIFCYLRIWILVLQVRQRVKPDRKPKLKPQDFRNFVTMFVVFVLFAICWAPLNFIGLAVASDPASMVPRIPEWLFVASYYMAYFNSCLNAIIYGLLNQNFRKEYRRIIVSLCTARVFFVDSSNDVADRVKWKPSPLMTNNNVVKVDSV

[12] = molecular target: Transient receptor potential cation channel subfamily A member 1 (Rattus norvegicus) (UniProt Q6RI86); test: Antagonist activity at endogenous TRPA1 in rat DRG neurons assessed as blockade of AITC-induced CGRP release at 5 micromol/L; assay type: cell-based; conditions: DRG neuron, filed as antagonist, dose 5.0 µmol/L
Chain of Transient receptor potential cation channel subfamily A member 1 (Rattus norvegicus) (Q6RI86 whole entry): as the sequence (Q6RI86 whole entry) above

[13] = molecular target: Transient receptor potential cation channel subfamily A member 1 (Rattus norvegicus) (UniProt Q6RI86); test: Antagonist activity at endogenous TRPA1 in rat DRG neurons assessed as blockade of bradykinin-induced CGRP release at 5 micromol/L; assay type: cell-based; conditions: DRG neuron, filed as antagonist, dose 5.0 µmol/L
[14] = Oral bioavailability in rat at 2 mg/kg; assay type: ADME, organism-based; conditions: in vivo
[15] = Cmax in rat at 2 mg/kg, po; assay type: ADME, organism-based; conditions: in vivo
[16] = Half-life in rat at 2 mg/kg, po; assay type: ADME, organism-based; conditions: in vivo
[17] = Drug concentration in rat at 20.7 mg/kg, po measured after 60 mins; assay type: ADME, organism-based; conditions: in vivo, read-out: Drug uptake
[18] = Drug concentration in rat at 62.1 mg/kg, po measured after 60 mins; assay type: ADME, organism-based; conditions: in vivo, read-out: Drug uptake
[19] = Tmax in rat at 2 mg/kg, po; assay type: ADME, organism-based; conditions: in vivo
Rattus norvegicus [20] = test: Analgesic activity in AITC-induced nocifensive response Sprague-Dawley rat model assessed as prevention of mustard oil-induced flinching behavior administered orally for 1 hrs; assay type: functional, organism-based; conditions: dose 6.2-62.1 mg/kg, route po
[21] = Effect on locomotory activity in Sprague-Dawley rat model of mustard oil-induced nocifensive response at 6.2 to 62.1 mg/kg, po administered for 1 hrs; assay type: toxicity, organism-based; conditions: in vivo, dose 6.2-62.1 mg/kg
[22] = Toxicity in CD1 mouse assessed as effect on first jump latency at 0 degreeC at 62.1 mg/kg, po measured after 4 mins by noxious cold plate assay; assay type: organism-based; conditions: in vivo
[23] = Toxicity in Sprague-Dawley rat assessed as effect on tail withdrawal latency to hot water immersion at 55 degreeC at 62.1 mg/kg, po by tail immersion test; assay type: organism-based; conditions: in vivo
Rattus norvegicus [24] = test: Antiallodynic activity in acetone-induced CCI Sprague-Dawley rat model assessed as attenuation of acetone induced cold allodynia at 62.1 mg/kg, po measured after 1 hrs relative to control; assay type: functional
Rattus norvegicus [25] = test: Antiallodynic activity in CCI-induced neuropathic pain Sprague-Dawley rat model assessed as attenuation of mechanical allodynia at 6.2 to 62.1 mg/kg, po administered with compound for 1 hrs and measured 10 to 14 days after surgery; assay type: functional, organism-based; conditions: dose 6.2-62.1 mg/kg, time 241-337 hrs
Rattus norvegicus [26] = test: Antiallodynic activity in spinal nerve ligation-induced neuropathic pain Sprague-Dawley rat model assessed as attenuation of mechanical allodynia at 6.2 to 62.1 mg/kg, po administered with compound for 1 hrs and measured 10 to 14 days after surgery; assay type: functional, organism-based; conditions: dose 6.2-62.1 mg/kg, time 241-337 hrs
Rattus norvegicus [27] = test: Antiallodynic activity in CFA-induced mechanical allodynia Sprague-Dawley rat model assessed as attenuation of mechanical allodynia at 6.2 to 62.1 mg/kg, po administered with compound for 1 hrs and measured 48 hrs after CFA injection; assay type: functional, organism-based; conditions: dose 6.2-62.1 mg/kg, time 49.0 hrs

CCC(=N\O)/C(C)=C/c1ccc(F)cc1 [A-079]
solubility [1]: > 300 µM | remaining at 16 h [2]: > 95% | Stability [3]: Stable | Activity [4]: Dose-Dependent Effect | IC50 [5]: 296 nM | IC50 [6]: 101 nM | IC50 [7]: > 100000 nM | IC50 [8]: > 100000 nM | IC50 [9]: > 100000 nM | inhibition [10]: 43% | inhibition [11]: 31% | Activity [12]: Active | Activity [13]: Active | bioavailability [14]: 37% | Cmax [15]: 0.72 µM | half-life [16]: 48.6 min | concentration at 1 h [17]: 6.22 µM | concentration at 1 h [18]: 11.8 µM | Tmax [19]: 30 min | Activity (Rattus norvegicus [20]): Dose-Dependent Effect | Activity [21]: Non-Toxic | Activity [22]: Non-Toxic | Activity [23]: Non-Toxic | Activity (Rattus norvegicus [24]): 46.4% | Activity (Rattus norvegicus [25]): inactive | Activity (Rattus norvegicus [26]): inactive | Activity (Rattus norvegicus [27]): inactive
